Reference: the NIST ThermoML archive (doi:10.1021/je4003916)
Numbers after ± are expanded uncertainties.

Assay: xn = mol fraction of the nth substance listed
Details: 101 kPa, Liquid; for mass density: Vibrating tube method

COC(=O)CCCCC(=O)OC [dimethyl 1,6-hexanedioate] + CCCCO
viscosity [mPa·s], stabinger viscometer
Details | x1 = 0.0999 | x1 = 0.2004 | x1 = 0.2999 | x1 = 0.4003 | x1 = 0.4999 | x1 = 0.6007 | x1 = 0.6996 | x1 = 0.7994 | x1 = 0.8991 | x1 = 1
288.15 K | 2.635 ± 0.008 | 2.426 ± 0.008 | 2.384 ± 0.008 | 2.422 ± 0.009 | 2.519 ± 0.01 | 2.66 ± 0.011 | 2.884 ± 0.013 | 3.08 ± 0.014 | 3.379 ± 0.016 | 3.751 ± 0.019
293.15 K | 2.322 ± 0.007 | 2.147 ± 0.007 | 2.114 ± 0.008 | 2.149 ± 0.008 | 2.237 ± 0.009 | 2.361 ± 0.01 | 2.556 ± 0.011 | 2.723 ± 0.013 | 2.977 ± 0.015 | 3.289 ± 0.017
298.15 K | 2.057 ± 0.007 | 1.911 ± 0.007 | 1.886 ± 0.007 | 1.92 ± 0.007 | 2.003 ± 0.008 | 2.11 ± 0.009 | 2.287 ± 0.01 | 2.425 ± 0.011 | 2.649 ± 0.013 | 2.91 ± 0.015
303.15 K | 1.837 ± 0.006 | 1.716 ± 0.006 | 1.699 ± 0.006 | 1.732 ± 0.007 | 1.805 ± 0.007 | 1.902 ± 0.008 | 2.06 ± 0.009 | 2.183 ± 0.01 | 2.374 ± 0.012 | 2.604 ± 0.013
308.15 K | 1.646 ± 0.006 | 1.546 ± 0.006 | 1.536 ± 0.006 | 1.569 ± 0.006 | 1.636 ± 0.007 | 1.724 ± 0.008 | 1.868 ± 0.009 | 1.975 ± 0.009 | 2.144 ± 0.011 | 2.343 ± 0.012
313.15 K | 1.481 ± 0.005 | 1.4 ± 0.005 | 1.396 ± 0.005 | 1.428 ± 0.006 | 1.491 ± 0.006 | 1.572 ± 0.007 | 1.704 ± 0.008 | 1.797 ± 0.009 | 1.947 ± 0.01 | 2.121 ± 0.011
318.15 K | 1.338 ± 0.005 | 1.272 ± 0.005 | 1.273 ± 0.005 | 1.306 ± 0.006 | 1.365 ± 0.006 | 1.44 ± 0.007 | 1.562 ± 0.007 | 1.645 ± 0.008 | 1.778 ± 0.009 | 1.933 ± 0.01
323.15 K | 1.229 ± 0.005 | 1.176 ± 0.005 | 1.179 ± 0.005 | 1.214 ± 0.005 | 1.268 ± 0.006 | 1.339 ± 0.006 | 1.456 ± 0.007 | 1.528 ± 0.008 | 1.648 ± 0.008 | 1.79 ± 0.009

C1CCOC1 [tetrahydrofuran] + CCCCO
Details | mass density [kg/m3] | viscosity [mPa·s]
288.15 K, x1 = 0.1001 | 820.7 ± 0.14 | 2.377 ± 0.023
288.15 K, x1 = 0.2003 | 828.11 ± 0.13 | 1.788 ± 0.019
288.15 K, x1 = 0.3 | 835.61 ± 0.13 | 1.416 ± 0.017
288.15 K, x1 = 0.4003 | 843.28 ± 0.13 | 1.15 ± 0.015
288.15 K, x1 = 0.5 | 851.03 ± 0.13 | 0.962 ± 0.014
288.15 K, x1 = 0.6001 | 858.98 ± 0.12 | 0.836 ± 0.013
288.15 K, x1 = 0.7003 | 867.19 ± 0.12 | 0.723 ± 0.012
288.15 K, x1 = 0.8006 | 875.64 ± 0.12 | 0.642 ± 0.012
288.15 K, x1 = 0.9002 | 884.34 ± 0.12 | 0.578 ± 0.011
288.15 K, x1 = 1 | 893.29 ± 0.11 | 0.522 ± 0.011
293.15 K, x1 = 0.1001 | 816.75 ± 0.14 | 2.111 ± 0.022
293.15 K, x1 = 0.2003 | 823.99 ± 0.13 | 1.612 ± 0.018
293.15 K, x1 = 0.3 | 831.34 ± 0.13 | 1.292 ± 0.016
293.15 K, x1 = 0.4003 | 838.84 ± 0.13 | 1.061 ± 0.015
293.15 K, x1 = 0.5 | 846.43 ± 0.13 | 0.895 ± 0.013
293.15 K, x1 = 0.6001 | 854.21 ± 0.13 | 0.785 ± 0.013
293.15 K, x1 = 0.7003 | 862.27 ± 0.12 | 0.683 ± 0.012
293.15 K, x1 = 0.8006 | 870.54 ± 0.12 | 0.61 ± 0.012
293.15 K, x1 = 0.9002 | 879.08 ± 0.12 | 0.555 ± 0.011
293.15 K, x1 = 1 | 887.86 ± 0.12 | 0.502 ± 0.011
298.15 K, x1 = 0.1001 | 812.77 ± 0.14 | 1.882 ± 0.02
298.15 K, x1 = 0.2003 | 819.86 ± 0.14 | 1.46 ± 0.017
298.15 K, x1 = 0.3 | 827.04 ± 0.13 | 1.184 ± 0.015
298.15 K, x1 = 0.4003 | 834.38 ± 0.13 | 0.979 ± 0.014
298.15 K, x1 = 0.5 | 841.8 ± 0.13 | 0.834 ± 0.013
298.15 K, x1 = 0.6001 | 849.43 ± 0.13 | 0.736 ± 0.012
298.15 K, x1 = 0.7003 | 857.31 ± 0.13 | 0.645 ± 0.012
298.15 K, x1 = 0.8006 | 865.41 ± 0.12 | 0.579 ± 0.011
298.15 K, x1 = 0.9002 | 873.78 ± 0.12 | 0.528 ± 0.011
298.15 K, x1 = 1 | 882.4 ± 0.12 | 0.48 ± 0.011
303.15 K, x1 = 0.1001 | 808.76 ± 0.14 | 1.687 ± 0.019
303.15 K, x1 = 0.2003 | 815.69 ± 0.14 | 1.331 ± 0.016
303.15 K, x1 = 0.3 | 822.71 ± 0.14 | 1.087 ± 0.015
303.15 K, x1 = 0.4003 | 829.89 ± 0.13 | 0.908 ± 0.014
303.15 K, x1 = 0.5 | 837.15 ± 0.13 | 0.779 ± 0.013
303.15 K, x1 = 0.6001 | 844.61 ± 0.13 | 0.692 ± 0.012
303.15 K, x1 = 0.7003 | 852.32 ± 0.13 | 0.61 ± 0.012
303.15 K, x1 = 0.8006 | 860.26 ± 0.12 | 0.55 ± 0.011
303.15 K, x1 = 0.9002 | 868.46 ± 0.12 | 0.502 ± 0.011
303.15 K, x1 = 1 | 876.91 ± 0.12 | 0.459 ± 0.011
308.15 K, x1 = 0.1001 | 804.73 ± 0.14 | 1.517 ± 0.018
308.15 K, x1 = 0.2003 | 811.49 ± 0.14 | 1.215 ± 0.016
308.15 K, x1 = 0.3 | 818.36 ± 0.14 | 1 ± 0.014
308.15 K, x1 = 0.4003 | 825.36 ± 0.13 | 0.843 ± 0.013
308.15 K, x1 = 0.5 | 832.46 ± 0.13 | 0.728 ± 0.012
308.15 K, x1 = 0.6001 | 839.75 ± 0.13 | 0.652 ± 0.012
308.15 K, x1 = 0.7003 | 847.3 ± 0.13 | 0.576 ± 0.011
308.15 K, x1 = 0.8006 | 855.06 ± 0.13 | 0.521 ± 0.011
308.15 K, x1 = 0.9002 | 863.09 ± 0.12 | 0.478 ± 0.011
308.15 K, x1 = 1 | 871.38 ± 0.12 | 0.44 ± 0.011
313.15 K, x1 = 0.1001 | 800.66 ± 0.14 | 1.368 ± 0.017
313.15 K, x1 = 0.2003 | 807.26 ± 0.14 | 1.111 ± 0.015
313.15 K, x1 = 0.3 | 813.96 ± 0.14 | 0.922 ± 0.014
313.15 K, x1 = 0.4003 | 820.81 ± 0.14 | 0.782 ± 0.013
313.15 K, x1 = 0.5 | 827.74 ± 0.13 | 0.681 ± 0.012
313.15 K, x1 = 0.6001 | 834.86 ± 0.13 | 0.608 ± 0.012
313.15 K, x1 = 0.7003 | 842.24 ± 0.13 | 0.543 ± 0.011
313.15 K, x1 = 0.8006 | 849.83 ± 0.13 | 0.494 ± 0.011
313.15 K, x1 = 0.9002 | 857.7 ± 0.13 | 0.454 ± 0.011
313.15 K, x1 = 1 | 865.81 ± 0.12 | 0.418 ± 0.01
318.15 K, x1 = 0.1001 | 796.55 ± 0.14 | 1.238 ± 0.016
318.15 K, x1 = 0.2003 | 802.99 ± 0.14 | 1.019 ± 0.014
318.15 K, x1 = 0.3 | 809.53 ± 0.14 | 0.852 ± 0.013
318.15 K, x1 = 0.4003 | 816.21 ± 0.14 | 0.727 ± 0.012
318.15 K, x1 = 0.5 | 822.98 ± 0.14 | 0.637 ± 0.012
318.15 K, x1 = 0.6001 | 829.93 ± 0.13 | 0.571 ± 0.011
318.15 K, x1 = 0.7003 | 837.14 ± 0.13 | 0.513 ± 0.011
318.15 K, x1 = 0.8006 | 844.56 ± 0.13 | 0.466 ± 0.011
318.15 K, x1 = 0.9002 | 852.25 ± 0.13 | 0.428 ± 0.01
318.15 K, x1 = 1 | 860.2 ± 0.12 | 0.396 ± 0.01
323.15 K, x1 = 0.1001 | 792.4 ± 0.14 | 1.139 ± 0.015
323.15 K, x1 = 0.2003 | 798.67 ± 0.14 | 0.949 ± 0.014
323.15 K, x1 = 0.3 | 805.05 ± 0.14 | 0.795 ± 0.013
323.15 K, x1 = 0.4003 | 811.57 ± 0.14 | 0.683 ± 0.012
323.15 K, x1 = 0.5 | 818.17 ± 0.14 | 0.599 ± 0.012
323.15 K, x1 = 0.6001 | 824.96 ± 0.14 | 0.546 ± 0.011
323.15 K, x1 = 0.7003 | 832 ± 0.13 | 0.487 ± 0.011
323.15 K, x1 = 0.8006 | 839.25 ± 0.13 | 0.444 ± 0.011
323.15 K, x1 = 0.9002 | 846.77 ± 0.13 | 0.41 ± 0.01
323.15 K, x1 = 1 | 854.55 ± 0.13 | 0.384 ± 0.01
